The nature of data set [1]: Selectivity index, ratio of IC50 for human hFB-hTERT6 cells to IC50 for human K562 cells. Conditions: hFB-hTERT6 cells and K562 cells, read-out: Ratio IC50. The data set is classed as toxicity.
A short description of data set [2]: Drug uptake in verapamil-treated human K562i/S9 cells at 2 uM incubated for 3 to 120 hrs by flow cytometry relative to wild-type culture. The data set is classed as ADME, cell-based. Conditions: k562i/s9, 2 µM, time 3-120 hrs.
Data set [3] in a line: Drug uptake in cytoplasmic membrane of human HCT-116 cells at 3 uM incubated for 1 hr by confocal microscopy. Format: ADME, cell membranes, Cytoplasm membrane. Conditions: hct-116, 1 h.
The subject of data set [4] is K562. Description: Induction of apoptosis in human K562 cells assessed as viable cells at 1 uM incubated for 24 hrs by Annexin V-FITC/PI staining based flow cytometry (reference value: 85.9 %). Format: functional. Conditions: read-out: Activity.
Data set [5] concerns K562/4. Description: Induction of apoptosis in human K562/4 cells assessed as late apoptotic cells at 1 uM incubated for 24 hrs by Annexin V-FITC/PI staining based flow cytometry (reference value: 2.5 %). Format: functional.
For data set [6], the system named is K562. Description: Induction of apoptosis in human K562 cells assessed as early apoptotic cells at 1 uM incubated for 48 hrs by Annexin V-FITC/PI staining based flow cytometry (reference value: 0.8 %). Format: functional.
The subject of data set [7] is K562/4. Description: Induction of apoptosis in human K562/4 cells assessed as viable cells at 1 uM incubated for 48 hrs by Annexin V-FITC/PI staining based flow cytometry (reference value: 86 %). The data set is classed as functional. Conditions: read-out: Activity.
For data set [8], the system named is K562/4. Description: Induction of apoptosis in human K562/4 cells assessed as viable cells at 1 uM incubated for 48 hrs by Annexin V-FITC/PI staining based flow cytometry (reference value: 10.8 %). The data set is classed as functional. As to conditions: read-out: Activity.
In data set [9] the test system is K562. Description: Effect on cell cycle distribution in human K562 cells assessed as cells with fragmented DNA at sub-G1 phase at 0.75 uM incubated for 24 hrs by PI staining based flow cytometry (reference value: 3 %). Format: functional.
For data set [10], the system named is K562. Description: Effect on cell cycle distribution in human K562 cells assessed as cells with fragmented DNA at sub-G1 phase at 0.75 uM incubated for 48 hrs by PI staining based flow cytometry (reference value: 3 %). The data set is classed as functional.
The test system of data set [11] is K562. Description: Effect on cell cycle distribution in human K562 cells assessed as cells with fragmented DNA at sub-G1 phase at 1 uM incubated for 48 hrs by PI staining based flow cytometry (reference value: 3 %). The data set is classed as functional.
In data set [12] the test system is K562. Description: Effect on cell cycle distribution in human K562 cells assessed as cells with fragmented DNA at sub-G1 phase at 1 uM incubated for 72 hrs by PI staining based flow cytometry (reference value: 3 %). Format: functional.
Data set [13] relates to K562/4. Description: Effect on cell cycle distribution in human K562/4 cells assessed as cells with fragmented DNA at sub-G1 phase at 1 uM incubated for 48 hrs by PI staining based flow cytometry (reference value: 4 %). The data set is classed as functional.
Data set [14] deals with T1, DNA topoisomerase 1 (Homo sapiens) (UniProt P11387).
T1 sequence (whole entry): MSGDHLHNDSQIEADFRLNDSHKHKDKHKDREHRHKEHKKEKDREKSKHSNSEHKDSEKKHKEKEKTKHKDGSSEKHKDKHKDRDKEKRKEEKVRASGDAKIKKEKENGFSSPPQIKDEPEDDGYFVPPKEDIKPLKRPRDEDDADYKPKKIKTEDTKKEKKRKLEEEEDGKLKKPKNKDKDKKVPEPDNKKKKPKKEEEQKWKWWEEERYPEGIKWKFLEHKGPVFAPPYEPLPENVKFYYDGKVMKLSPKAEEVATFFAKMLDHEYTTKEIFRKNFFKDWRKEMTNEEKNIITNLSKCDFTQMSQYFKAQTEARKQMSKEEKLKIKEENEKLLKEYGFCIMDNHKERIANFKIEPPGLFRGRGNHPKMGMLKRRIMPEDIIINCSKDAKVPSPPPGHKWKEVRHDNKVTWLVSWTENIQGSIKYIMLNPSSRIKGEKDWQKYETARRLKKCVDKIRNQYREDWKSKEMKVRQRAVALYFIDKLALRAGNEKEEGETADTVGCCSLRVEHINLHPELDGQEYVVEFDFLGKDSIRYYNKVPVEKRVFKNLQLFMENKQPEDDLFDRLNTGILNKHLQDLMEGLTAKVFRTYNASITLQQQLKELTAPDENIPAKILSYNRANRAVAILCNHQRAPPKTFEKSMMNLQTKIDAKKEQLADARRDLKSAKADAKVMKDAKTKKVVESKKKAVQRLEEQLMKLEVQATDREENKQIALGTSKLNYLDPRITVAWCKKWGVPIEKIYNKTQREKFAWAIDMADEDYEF
Description: Inhibition of Top1 (unknown origin)-mediated unwinding of supercoiled DNA at 5 uM incubated for 30 mins by electrophoretic analysis.

The structures appear in SMILES notation. Active and inactive are the calls of the source. The calls are words filed in the database; no cut-off is given here.

For `CS(=O)(=O)O.N[C@H]1CCN(C(=O)c2cc3c(O)c4c(c(O)c3[nH]2)C(=O)c2ccccc2C4=O)C1`, the selectivity ratio in data set [1] stood at 8.4. Further, the results for the Drug uptake in data set [2] and in data set [3] were 50% and “Not_active”, respectively. For the same compound, the viability at 1 µM came out at 29% in the data set with K562 [4], 3.4% with K562/4 [7] and 79% in the data set on K562/4 [8]. Besides, the Activity with K562/4 [5] is recorded as 20.4%; in the data set on K562 [6] it was 0.5%; in the data set with K562 [9], 21%; with K562 [10], 26%; with K562 [11], 84%; with K562 [12], 97%. Besides, in the data set with K562/4 [13], the Activity is on record as 54%. Also, in data set [14], the inhibition result is “Active”.

(Values after ChEMBL document CHEMBL6087404, “Naphthoindole-2-carboxamides as a lipophilic chemotype of hetarene-anthraquinones potent against P-gp resistant tumor cells” (Eur J Med Chem, 2025).)
